# Assay results from patent US9074255B2, “Method of predicting a predisposition to QT prolongation” (Vanda Pharmaceuticals, Inc., priority 2009, dated 2015).
# Tests used:
# QT interval [1] = test: FAM13A1 SNP genotypes and QT prolongation (QTcF) following administration of iloperidone; type: in vivo, human
# Experimental: (§1) Since the QT interval changes with changes in heart rate, the QT interval is often measured as a corrected QT (QTc) interval. Any number of formulas may be employed to calculate the QTc, including, for example, the Fridericia formula (QTcF), the Bazett formula (QTcB), and the Rautaharju formula (QTp), among others. In the studies described herein, QT was calculated using the Fridericia formula. However, the present invention includes the use of any such formula or method for calculating a QTc or an uncorrected QT.
# QT interval [2] = test: QT prolongation vs presence or absence of TT genotype at rs3775378 in 174 individuals given iloperidone; type: in vivo, human; conditions: 24 mg/day B.I.D. oral, two weeks
# Experimental: as §1, with “QT. Using the genotypes at the SNP loci above, it is possible, with a high degree of certainty, to predict an individual's predisposition to QT prolongation.” for “QT.”
smiles,measurement,setting,value
"COc1cc(C(C)=O)ccc1OCCCN1CCC(c2noc3cc(F)ccc23)CC1 [iloperidone, 1-[4-[3-[4-(6-fluoro-1,2-benzisoxazol-3-yl)-1-piperidinyl]propoxy]-3-methoxyphenyl]ethanone]",Lowest QTc change (genotype),"QT interval [1]; SNP_A-1824897, rs10008568, allele A=A, B=G",nonAB
same,Lowest QTc change (genotype),"QT interval [1]; SNP_A-1906173, rs3775378, allele A=C, B=T",non-BB
same,Lowest QTc change (genotype),"QT interval [1]; SNP_A-1943446, rs17014602, allele A=C, B=G",non-AA
same,Lowest QTc change (genotype),"QT interval [1]; SNP_A-1977994, rs17014483, allele A=C, B=T",non-BB
same,Lowest QTc change (genotype),"QT interval [1]; SNP_A-2152738, rs1458553, allele A=A, B=G",nonAA
same,Lowest QTc change (genotype),"QT interval [1]; SNP_A-2190887, rs2609260, allele A=A, B=G",nonAB
same,Lowest QTc change (genotype),"QT interval [1]; SNP_A-4287986, rs2609265, allele A=C, B=T",nonAB
same,Lowest QTc change (genotype),"QT interval [1]; SNP_A-4290819, rs17014687, allele A=C, B=T",non-BB
same,Lowest QTc change (genotype),"QT interval [1]; SNP_A-4291320, rs2609264, allele A=C, B=T",nonAB
same,Lowest QTc change (genotype),"QT interval [1]; SNP_A-4296194, rs12507401, allele A=C, B=G",non-AA
same,"High QT, + test (number of individuals)",QT interval [2]; Change threshold QT > 5 msec,9
same,"High QT, − test (number of individuals)",QT interval [2]; Change threshold QT > 5 msec,101
same,"Low QT, + test (number of individuals)",QT interval [2]; Change threshold QT > 5 msec,0
same,"Low QT, − test (number of individuals)",QT interval [2]; Change threshold QT > 5 msec,63
same,"High QT, + test (number of individuals)",QT interval [2]; Change threshold QT > 15 msec,8
same,"High QT, − test (number of individuals)",QT interval [2]; Change threshold QT > 15 msec,59
same,"Low QT, + test (number of individuals)",QT interval [2]; Change threshold QT > 15 msec,1
same,"Low QT, − test (number of individuals)",QT interval [2]; Change threshold QT > 15 msec,105
same,"High QT, + test (number of individuals)",QT interval [2]; Change threshold QT > 30 msec,6
same,"High QT, − test (number of individuals)",QT interval [2]; Change threshold QT > 30 msec,22
same,"Low QT, + test (number of individuals)",QT interval [2]; Change threshold QT > 30 msec,3
same,"Low QT, − test (number of individuals)",QT interval [2]; Change threshold QT > 30 msec,142
